Experimental data from patent publication US20190389903A1, “INSULIN A-CHAIN DERIVED PEPTIDE FRAGMENT AND PHARMACEUTICAL COMPOSITION FOR PREVENTING OR TREATING DIABETES OR DIABETIC WOUNDS, CONTAINING THE SAME” (SUPADELIXIR INC., priority 2017, published 2019).

Tests used:
Format in all cases: cell-based
[1] = tested on: physical interaction between Grb2 and SOS1; test: Insulin-like activity: Grb2-SOS1 physical interaction by PLA (proximity ligation assay) in HaCaT cells; conditions: 1 μM, 5 min, Humulin R at same concentration, FIG. 1
Procedure: When the insulin signal is transmitted into cells, the physical interaction between Grb2 and SOS1 is increased. After treatment of the cells with the peptide of the present invention, the physical interaction between Grb2 and SOS1 was measured through PLA (proximity ligation assay) and thus insulin-like activity was evaluated. 4.5×10^4 HaCaT cells (CLS 300493) were seeded in a DMEM serum medium in each well of a 24-well microplate and cultured in a 5% CO2 incubator at 37° C. for 24 hr, after which the peptide solution of Example 2 was added such that the peptide concentration of SEQ ID NOS: 1 to 6 in the medium was 1 μM, followed by incubation for 5 min under the same conditions. As a positive control, Humulin R was treated at the same concentration. A control received no treatment. The cells of each well were washed with PBS, treated with 2% formaldehyde for 15 min to thus fix the same, and then treated with 0.1% TritonX-100 for 5 min to thus increase antibody permeability into the cells. […] The physical interactions of the Grb2 and SOS1 antibodies were quantified by measuring the PLA signals detected in individual cells using a confocal laser microscope (Olympus FluoView FW1000; Olympus, Tokyo, Japan).

insulin receptor [2] = test: RNA interference: endocytosis after insulin receptor siRNA transfection in HaCaT cells; conditions: FITC-conjugated peptide 1 μM, 5 min, siRNA 10 nM or 30 nM vs no treatment, FIG. 2B
Procedure: Based on the above test results, in order to determine whether the effect of the peptide of the present invention on endocytosis is mediated by the insulin receptor, RNA interference was analyzed. HaCaT cells (CLS 300493) were cultured in a DMEM serum medium until the cells reached 50-60% confluency, followed by transient transfection using the insulin receptor siRNA (Santa Cruz, Calif., USA) (no treatment, 10 nM treatment, or 30 nM treatment) and lipofectamine RNAiMAX (Invitrogen) in accordance with the manufacturer's protocol to thus inhibit the insulin receptor expression, after which the cells were treated for 5 min using the peptide of SEQ ID NO: 3 having the fluorescent material conjugated thereto at a concentration of 1 μM. The fluorescence intensity of each group was observed using a confocal laser microscope (Olympus FluoView FW1000; Olympus, Tokyo, Japan).

insulin receptor [3] = test: 2-NBDG glucose uptake after inhibition of insulin receptor expression using siRNA; conditions: peptide 1 μM, 5 min; siRNA 10 nM or 30 nM vs no treatment; HaCaT cells; FIG. 6
Procedure: Based on the above test results, in order to evaluate whether, like insulin, the peptide of the present invention enhances glucose uptake through the insulin receptor, insulin receptor expression was inhibited using siRNA, after which 2-NBDG glucose uptake testing was performed. HaCaT cells (CLS 300493) were cultured in a DMEM serum medium until the cells reached 50-60% confluency, followed by transient transfection using the insulin receptor siRNA (Santa Cruz, Calif., USA) (no treatment, 10 nM treatment, or 30 nM treatment) and lipofectamine RNAiMAX (Invitrogen) in accordance with the manufacturer's protocol to thus inhibit insulin receptor expression, after which the cells were treated for 5 min using the peptide of SEQ ID NO: 3 at a concentration of 1 μM. A mixed solution of a 2-NBDG reagent and a glucose uptake enhancer was prepared in accordance with the manufacturer's protocol, after which the cells were treated therewith for 1 hr, washed with the supplied cold 1× analysis buffer, and observed using a confocal laser microscope (Olympus FluoView FW1000; Olympus, Tokyo, Japan).

insulin receptor [4] = test: Immunofluorescence analysis of endocytosis of FITC-conjugated peptide in HaCaT cells; conditions: FITC-conjugated peptide 1 μM, 5, 15, 30, 60 min tested, FIG. 2A
Procedure: In order to evaluate whether, like insulin, the peptide of the present invention induces endocytosis by binding to the insulin receptor, immunofluorescence analysis was performed. A fluorescent material (FITC) was conjugated to the peptide of SEQ ID NO: 3. HaCaT cells (CLS 300493) were pretreated in the same manner as in Test Example 1, added with the peptide solution of SEQ ID NO: 3 having the fluorescent material conjugated thereto such that the final concentration was 1 μM, and then treated for 5 min, 15 min, 30 min, and 60 min. The cells were washed three times with a PBS solution and then mounted onto a slide to give a test specimen, which was then observed using a confocal laser microscope (Olympus FluoView FW1000; Olympus, Tokyo, Japan). […] The insulin binds to the insulin receptor in the cells, followed by endocytosis (internalization) and then degradation.

HaCaT cells [5] = test: 2-NBDG glucose uptake analysis; conditions: 0.001, 0.01, 0.1 μM in serum-free media, 5 min, FIG. 5
Procedure: 2-NBDG glucose, which is a fluorescent deoxyglucose analogue, is introduced into cells by a glucose transporter, like glucose, but accumulates without actual metabolism, and thus the extent of glucose uptake may be determined based on the accumulated amount of fluorescence. A 2-NBDG glucose uptake kit (Biovision) was used for 2-NBDG glucose uptake analysis. Specifically, 3×10^4 HaCaT cells (CLS 300493) were seeded in each well of a 24-well plate, cultured in a 5% CO2 incubator at 37° C. for 24 hr with a DMEM serum medium, washed with PBS, and treated with the peptide of SEQ ID NO: 3 and Humulin R such that the concentrations in serum-free media were 0.001 μM, 0.01 μM, and 0.1 μM, followed by incubation for 5 min. A mixed solution of a 2-NBDG reagent and a glucose uptake enhancer was prepared in accordance with the manufacturer's protocol, after which the cells were treated therewith for 1 hr, washed with the supplied cold 1× analysis buffer, and observed using a confocal laser microscope (Olympus FluoView FW1000; Olympus, Tokyo, Japan).

HaCaT cells [6] = test: Cell proliferation test (CCK-8); conditions: 0.1, 1 and 10 μM in serum-free media, 24, 48 and 72 hr, FIG. 4
Procedure: For cell proliferation testing, 5×10^3 HaCaT cells (CLS 300493) were seeded in each well of a 96-well plate, and then treated with a solution containing the peptide of SEQ ID NO: 3 (total volume: 90 μl) such that the concentrations in serum-free media were 0.1, 1 and 10 μM. Cell proliferation for 24, 48 and 72 hr was observed using a microplate reader (Versa Max, USA). For measurement, treatment was performed for 2 hr using 10 μl of a CCK-8 (cell counting kit-8) solution at the same time every day.

HaCaT cells [7] = test: Cell migration test (Culture-Insert 2 Well); conditions: peptide 0.01, 0.1, 1 μM or Humulin R 1 μM for 5 min, observed after 10 hr and 13 hr, FIG. 3
Procedure: For cell migration testing, a Culture-Insert 2 Well (Ibidi™), having two separate culture spaces therein, was used. When cells are cultured on the above plate, the cells are attached to both sides, between which an empty space is formed, followed by removal of the insert well and further culturing, whereby the cells of the two sides migrate to the empty space of the plate. HaCaT cells (CLS 300493) were cultured on the above plate until the cells reached 90% confluency and then the insert well was removed, after which the cells were treated for 5 min with the peptide of SEQ ID NO: 3 (0.01 μM, 0.1 μM, 1 μM) or Humulin R (1 μM), and washed with PBS, after which the medium was replaced with a cell culture medium (DMEM serum medium). After 10 hr and 13 hr, cell migration was observed through a phase contrast microscope.

[8] = tested on: glucose transporter (GLUT4); test: Translocation of glucose transporter to cell membrane by immunofluorescence; conditions: HaCaT cells; 0.001, 0.01 and 0.1 μM in serum-free DMEM, 5 min; FIG. 7
Procedure: In addition, the translocation of the glucose transporter to the cell membrane in HaCaT cells was evaluated through immunofluorescence analysis. Specifically, HaCaT cells (CLS 300493) were treated with the peptide of SEQ ID NO: 3 and Humulin R (positive control) at concentrations of 0.001, 0.01 and 0.1 μM in a serum-free DMEM medium for 5 min. The cells were washed with a PBS solution, treated with a GLUT4 antibody (Santa Cruz, Calif., USA) for 1 hr, treated with rhodamine red for 40 min, and observed using a confocal laser microscope (Olympus FluoView FW1000; Olympus, Tokyo, Japan).

Sequence of insulin receptor (P06213 28-758 limits assumed): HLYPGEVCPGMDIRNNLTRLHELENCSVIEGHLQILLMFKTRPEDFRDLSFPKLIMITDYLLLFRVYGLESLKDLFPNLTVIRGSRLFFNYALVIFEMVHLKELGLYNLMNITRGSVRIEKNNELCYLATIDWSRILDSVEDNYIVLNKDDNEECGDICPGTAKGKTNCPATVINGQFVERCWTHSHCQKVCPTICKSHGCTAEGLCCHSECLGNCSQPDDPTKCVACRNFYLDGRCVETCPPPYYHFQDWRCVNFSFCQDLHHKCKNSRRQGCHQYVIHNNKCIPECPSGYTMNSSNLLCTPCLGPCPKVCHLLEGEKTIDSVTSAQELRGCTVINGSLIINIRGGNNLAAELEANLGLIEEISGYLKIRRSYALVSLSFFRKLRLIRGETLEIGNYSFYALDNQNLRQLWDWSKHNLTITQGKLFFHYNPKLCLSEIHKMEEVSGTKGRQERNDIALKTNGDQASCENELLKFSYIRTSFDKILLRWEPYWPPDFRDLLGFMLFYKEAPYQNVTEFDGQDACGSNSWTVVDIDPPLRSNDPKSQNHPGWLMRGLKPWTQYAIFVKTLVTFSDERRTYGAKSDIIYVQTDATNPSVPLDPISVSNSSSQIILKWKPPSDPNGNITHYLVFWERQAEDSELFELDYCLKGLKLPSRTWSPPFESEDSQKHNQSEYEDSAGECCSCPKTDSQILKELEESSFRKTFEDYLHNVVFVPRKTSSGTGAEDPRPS
Sequence of insulin receptor (P06213 763-1382 partner limits assumed): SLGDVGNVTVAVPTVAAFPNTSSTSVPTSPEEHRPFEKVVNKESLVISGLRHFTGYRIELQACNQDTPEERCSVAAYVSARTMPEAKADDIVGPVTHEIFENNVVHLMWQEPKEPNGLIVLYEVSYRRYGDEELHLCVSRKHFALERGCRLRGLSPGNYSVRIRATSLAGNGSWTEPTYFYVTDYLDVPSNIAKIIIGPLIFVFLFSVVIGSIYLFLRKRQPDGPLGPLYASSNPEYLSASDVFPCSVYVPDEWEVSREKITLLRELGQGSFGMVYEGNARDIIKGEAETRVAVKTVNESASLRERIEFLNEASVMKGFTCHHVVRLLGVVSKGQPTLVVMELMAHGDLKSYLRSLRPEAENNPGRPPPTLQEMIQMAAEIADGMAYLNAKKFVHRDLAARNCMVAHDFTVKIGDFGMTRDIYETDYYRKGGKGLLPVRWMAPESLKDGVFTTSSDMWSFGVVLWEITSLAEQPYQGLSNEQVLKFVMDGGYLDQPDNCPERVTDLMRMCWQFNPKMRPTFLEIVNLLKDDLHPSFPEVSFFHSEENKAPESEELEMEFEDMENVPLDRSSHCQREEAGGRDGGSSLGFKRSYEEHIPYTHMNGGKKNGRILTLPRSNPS

Substance	Grb2/SOS1 antibody interaction (PLA signals) compared to positive control Humulin R [1]	Incidence of endocytosis in group transiently transfected with insulin receptor siRNA (insulin receptor [2])	Glucose uptake (2-NBDG) in group transiently transfected with insulin receptor siRNA (insulin receptor [3])	Time after treatment at which highest endocytosis (fluorescence) was observed (insulin receptor [4]) [min]	Glucose uptake (2-NBDG) (HaCaT cells [5])	Cell proliferation (HaCaT cells [6])	Cell migration (HaCaT cells [7])	Amount of glucose transporter (GLUT4) in the cell membrane [8]
Cys-Ser-Leu (CSL; Peptide fragment) [SEQ ID NO: 3]	significantly higher antibody interaction than the positive control	reduced	reduced	5	increased in a concentration-dependent manner	increased in a concentration-dependent manner	increased in a concentration-dependent manner	increased in the cell membrane in a concentration-dependent manner
Humulin R: recombinant insulin preparation (injection), used as positive control [reference compound]					increased in a concentration-dependent manner		increased	increased in the cell membrane in a concentration-dependent manner
